Experimental data taken from patent publication US10406166B2, “Antimicrobial compound” (priority 2015, dated 2019).
Like-named read-outs stand apart in the source and are kept apart here.

Key:
[1] = Cell cytotoxicity CC50; type: cell-based; conditions: human, 6-8 days, top concentration 100 μM, read-out: CC50 (concentration at which 50% cell toxicity is observed)
Source text: (§1) Notes Cell obtained from ATCC and virus prep was subjected to one round of centrifugation through a 40% (V/V) glycerol to remove any interferon produced from infected cells. Growth medium was Dulbecco's modified Eagle's medium (DMEM) with 10% (v/v) foetal calf serum (FCS), Viral maintenance medium was DMEM+2% (v/v) FCS
Cell Cytotoxicity—CC50 (concentration at which 50% cell toxicity is observed):
A549 cells and HeLa cells were used to seed a set of 96 well plates grown until 50% confluent, a 2 fold serial dilution of 5-Phenyl-S-3-amino-2,3-dihydro-1H-1,4-benzodiazepin-2-one (5) was performed on each cell line with DMSO (only) as control starting with 100 μM of 5-Phenyl-S-3-amino-2,3-dihydro-1H-1,4-benzodiazepin-2-one (5). Medium used was DMEM+2% FCS (normal medium for viral growth).
Cells were allowed to grow for 6-8 days to mimic a TCID50 assay after which cell viability was determined by adding Almar blur (similar to XTT) and reading at 600 nm (excitation 540 nm). No significant difference was observed between cells treated with 5-Phenyl-S-3-amino-2,3-dihydro-1H-1,4-benzodiazepin-2-one (5) and the DMSO control. No significant difference was observed between HeLa and A549 cells.

[2] = tested on: Bacillus subtilis; experiment: Antimicrobial susceptibility (MIC, agar dilution); type: cell-based; conditions: Isosensitest agar, 128-1 μg/mL, 37° C. for 24 h
Procedure: (§2) For each putative antimicrobial, determination of the antimicrobial susceptibility was performed in strict accordance with the recommendations of the British Society for Antimicrobial Chemotherapy. Isosensitest agar (Oxoid) was prepared according to the manufacturer's instructions and sterilized by autoclaving at 116° C. for 20 min. This was then cooled to 50° C. in a waterbath. A 10 mg sample of each antimicrobial was dissolved in 1 mL DMSO. A 256 μL aliquot was added to 19.744 mL of molten Isosensitest agar at 50° C. and mixed well. This was poured into a Petri dish to produce a culture plate containing a final concentration of 128 μg/mL. Smaller volumes of solution (ranging from 128-2 μL) were also incorporated into agar plates in similar fashion to produce a final concentration range of 128-1 μg/mL. A set of control plates was prepared containing DMSO at an identical concentration range without antimicrobial.
(§3) A panel of microorganisms was obtained from the National Collection of Type Cultures (NCTC), Colindale, UK, the National Collection of Pathogenic Fungi (NCPF), Colindale, UK, and the American Type Culture Collection (ATCC), Manassas, Va. USA. The panel included a range of pathogenic species and comprised Bacillus subtillis, Listeria monocytogenes, Staphyloccci epidermidis, Staphylococcus aureus, Staphylococcus aureus (MRSA) and Streptococcis pyogenes, all of which are Gram-positive bacteria. Each strain was cultured onto Columbia agar (Oxoid) and incubated overnight at 37° C. Colonies were then suspended in sterile distilled water (SDW) to produce a suspension of 1.5×10^8 colony forming units CFU/mL using a densitometer. This suspension was then diluted 1/15 in SDW and 1 μL was inoculated onto all test media using a semi-automated multipoint inoculator (final inoculum: 10 000 CFU per spot). All media were incubated at 37° C. for 24 h and examined for the presence of growth. […] All tests were repeated on a separate occasion to ensure reproducibility.
(§4) Determination of the antimicrobial susceptibility of the samples containing the isolated R and S enantiomers was performed as set out in Example 2.

[3] = tested on: Staphylococcus aureus; experiment: Antimicrobial susceptibility (MIC, agar dilution); type: cell-based; conditions: Isosensitest agar, 128-1 μg/mL, 37° C. for 24 h
Procedure: as §2, §3, §4

[4] = tested on: Staphylococcus aureus (MRSA); experiment: Antimicrobial susceptibility (MIC, agar dilution); type: cell-based; conditions: Isosensitest agar, 128-1 μg/mL, 37° C. for 24 h
Procedure: as §2, §3, §4

[5] = tested on: Staphyloccci epidermidis; experiment: Antimicrobial susceptibility (MIC, agar dilution); type: cell-based; conditions: Isosensitest agar, 128-1 μg/mL, 37° C. for 24 h
Procedure: as §2, §3, §4

[6] = tested on: Streptococcis pyogenes; experiment: Antimicrobial susceptibility (MIC, agar dilution); type: cell-based; conditions: Isosensitest agar, 128-1 μg/mL, 37° C. for 24 h
Procedure: as §2, §3, §4

[7] = tested on: Listeria monocytogenes; experiment: Antimicrobial susceptibility (MIC, agar dilution); type: cell-based; conditions: Isosensitest agar, 128-1 μg/mL, 37° C. for 24 h
Procedure: as §2, §3, §4

[8] = tested on: RSV; experiment: Plaque reduction assay; type: cell-based, Human RSV (Respiratory Syncytial Virus); conditions: A549, 10 μM added 3-4 hours before RSV; control titre 4.5×10^5
Procedure: as §1
A549 cells were seeded into a T25 flask and grown until 60-70% confluent. To one set of flasks (n=3) 5-Phenyl-S-3-amino-2,3-dihydro-1H-1,4-benzodiazepin-2-one (5) in DMSO was added at a concentration of 10 μM and allowed to incubate for 3-4 hours before the addition of RSV at an […] and incubated until extensive cytopathic effect (cpe) was evident, usually after 3 days. The concentration of 5-Phenyl-S-3-amino-2,3-dihydro-1H-1,4-benzodiazepin-2-one (5) was kept constant by replacing the medium each day (RSV is largely cell associated). After which virus was harvested by homogenising the cells in a final volume of 1 ml. The viral titre was determined by plaque assay and staining after 8 days. A control assay was conducted using DMSO in place of the DMSO solution of 5-Phenyl-S-3-amino-2,3-dihydro-1H-1,4-benzodiazepin-2-one (5). […]

[9] = tested on: RSV A2 strain; experiment: Infected cell viability assay (A549 only); type: cell-based, Human RSV (Respiratory Syncytial Virus); conditions: human respiratory syncytial virus, moi 0.1, 8 days
Procedure: as §1
96 wells plates were set up as previously described. As before a 2 fold serial dilution of 5-Phenyl-S-3-amino-2,3-dihydro-1H-1,4-benzodiazepin-2-one (5) was added prior to addition of virus at a multiplicity of infection (moi) of 0.1, as determined by a plaque assay, in a volume of 50 μl (starting conc 100 μM). After incubating for 4 hours RSV A2 strain was added at an moi of 0.1 maintaining the concentration of 5-Phenyl-S-3-amino-2,3-dihydro-1H-1,4-benzodiazepin-2-one (5). As before, DMSO was the control. The final lane was a mock infected minus 5-Phenyl-S-3-amino-2,3-dihydro-1H-1,4-benzodiazepin-2-one (5) to show viability of cells after 8 days incubation.
Every two days for up to 8 days the media plus drug was replaced to maintain activity, after 8 days cell viability was assayed by cell staining with methylene blue. Each experiment was performed twice with similar results, see FIG. 14.
An alternative experiment was set up as before except virus, at an moi of 0.1, was added before the drug and allowed to incubate for 4 hours. […]

[10] = aqueous; cited from earlier work

O=c1n(-c2c(F)c(F)nc(F)c2F)c2ccccc2n1-c1c(F)c(F)nc(F)c1F
melting point: 154.9 to 156 °C

O=C1C(=O)N(c2c(F)c(F)nc(F)c2F)c2ccccc21
melting point: 160.3 to 162.6 °C

COC(=O)CNc1c(F)c(F)nc(F)c1F
melting point: 67.8 to 68.7 °C

O=C1Nc2ccccc2C(c2ccccc2)=NC1Nc1c(F)c(F)nc(F)c1F (racemic) [Compound 5, 5-Phenyl-3-[(tetrafluoropyridin-4-yl)amino]-2,3-dihydro-1H-1,4-benzodiazepin-2-one]
CC50 ([1]; A549 cells): ≥ 100000 nM
CC50 ([1]; HeLa cells): ≥ 100000 nM
antibacterial activity (by minimum inhibitory concentration) [2]: not
antibacterial activity (by minimum inhibitory concentration) [3]: exhibited antibacterial activity
antibacterial activity (by minimum inhibitory concentration) ([3]; listed as racemate): effective
antibacterial activity (by minimum inhibitory concentration) [4]: exhibited antibacterial activity
antibacterial activity (by minimum inhibitory concentration) ([4]; listed as racemate): effective
antibacterial activity (by minimum inhibitory concentration) [5]: exhibited antibacterial activity
antibacterial activity (by minimum inhibitory concentration) ([5]; listed as racemate): effective
antibacterial activity (by minimum inhibitory concentration) [6]: exhibited antibacterial activity
antibacterial activity (by minimum inhibitory concentration) ([6]; listed as racemate): effective
antibacterial activity (by minimum inhibitory concentration) [7]: exhibited antibacterial activity
antibacterial activity (by minimum inhibitory concentration) ([7]; listed as racemate): effective
viral titre after exposure [8]: 2.3×10^3 viral infectivity units
EC50 ([9]; A549, compound added 4 hours before virus, Reed and Meunch, read-out: half maximal effective concentration (EC50)): 2400 nM
EC50 ([9]; A549, virus added 4 hours before the drug, Reed & Meunch, read-out: EC50): ~3000 nM

O=C1Nc2ccccc2C(c2ccccc2)=N[C@@H]1Nc1c(F)c(F)nc(F)c1F (single isomer, unassigned; enantiomer 5) [S enantiomer, 5-Phenyl-S-3-[(tetrafluoropyridin-4-yl)amino]-2,3-dihydro-1H-1,4-benzodiazepin-2-one]
antibacterial activity (by minimum inhibitory concentration) [2]: effective
antibacterial activity (by minimum inhibitory concentration) [3]: effective
antibacterial activity (by minimum inhibitory concentration) [4]: effective
antibacterial activity (by minimum inhibitory concentration) [5]: effective
antibacterial activity (by minimum inhibitory concentration) [6]: effective
antibacterial activity (by minimum inhibitory concentration) [7]: effective

O=C1Nc2ccc(Cl)cc2C(c2ccccc2Cl)=NC1O (centres unmarked) [Lorazepam]
pKa [10]: ~13.0

O=C1Nc2ccccc2C(c2ccccc2)=N[C@H]1Nc1c(F)c(F)nc(F)c1F [R enantiomer, 5-Phenyl-R-3-[(tetrafluoropyridin-4-yl)amino]-2,3-dihydro-1H-1,4-benzodiazepin-2-one]
antibacterial activity (by minimum inhibitory concentration) [3]: effective
antibacterial activity (by minimum inhibitory concentration) [4]: effective
antibacterial activity (by minimum inhibitory concentration) [5]: effective
